Results published in the NIST ThermoML archive (doi:10.1021/je400917j).
Numbers after ± are expanded uncertainties.

Assay: xn = mol fraction of the nth substance listed
Settings: 101 kPa, Liquid; for mass density: Vibrating tube method

CCCCCC(C)O (centres undefined) [2-heptanol] + CC(=O)N(C)C
Settings | mass density, 298.15 K [kg/m3] | mass density, 303.15 K [kg/m3] | mass density, 308.15 K [kg/m3] | mass density, 313.15 K [kg/m3] | viscosity, 298.15 K [mPa·s] | viscosity, 303.15 K [mPa·s] | viscosity, 308.15 K [mPa·s] | viscosity, 313.15 K [mPa·s]
x2 = 0 | 813.2 ± 0.2 | 809.5 ± 0.2 | 805.7 ± 0.2 | 801.5 ± 0.2 | 5.3 ± 0.15 | 4.48 ± 0.13 | 3.68 ± 0.11 | 2.96 ± 0.086
x2 = 0.0806 | 819 ± 0.2 | 814.8 ± 0.2 | 810.8 ± 0.2 | 806.5 ± 0.2 | 4.53 ± 0.13 | 3.75 ± 0.11 | 2.99 ± 0.087 | 2.51 ± 0.073
x2 = 0.1595 | 825 ± 0.2 | 820.7 ± 0.2 | 816.5 ± 0.2 | 812.1 ± 0.2 | 3.77 ± 0.11 | 3.17 ± 0.092 | 2.54 ± 0.074 | 2.13 ± 0.063
x2 = 0.2394 | 831.6 ± 0.2 | 827.1 ± 0.2 | 822.7 ± 0.2 | 818.1 ± 0.2 | 3.11 ± 0.09 | 2.6 ± 0.076 | 2.18 ± 0.064 | 1.82 ± 0.054
x2 = 0.3495 | 841.7 ± 0.2 | 837.1 ± 0.2 | 832.6 ± 0.2 | 827.7 ± 0.2 | 2.46 ± 0.072 | 2.08 ± 0.061 | 1.78 ± 0.053 | 1.48 ± 0.044
x2 = 0.4393 | 850.8 ± 0.2 | 846.2 ± 0.2 | 841.5 ± 0.2 | 836.6 ± 0.2 | 2.07 ± 0.061 | 1.775 ± 0.052 | 1.54 ± 0.046 | 1.28 ± 0.038
x2 = 0.559 | 864.7 ± 0.2 | 859.9 ± 0.2 | 855.1 ± 0.2 | 850.2 ± 0.2 | 1.65 ± 0.049 | 1.436 ± 0.043 | 1.26 ± 0.038 | 1.06 ± 0.032
x2 = 0.6494 | 876.4 ± 0.2 | 871.7 ± 0.2 | 866.8 ± 0.2 | 861.9 ± 0.2 | 1.41 ± 0.042 | 1.219 ± 0.037 | 1.08 ± 0.033 | 0.95 ± 0.029
x2 = 0.7393 | 889.4 ± 0.2 | 884.7 ± 0.2 | 879.9 ± 0.2 | 875.1 ± 0.2 | 1.2 ± 0.036 | 1.09 ± 0.033 | 0.98 ± 0.03 | 0.87 ± 0.027
x2 = 0.8494 | 907.5 ± 0.2 | 902.8 ± 0.2 | 898.1 ± 0.2 | 893.4 ± 0.2 | 1.06 ± 0.032 | 0.97 ± 0.03 | 0.88 ± 0.027 | 0.8 ± 0.025
x2 = 0.9393 | 924.2 ± 0.2 | 919.7 ± 0.2 | 915.3 ± 0.2 | 910.8 ± 0.2 | 0.98 ± 0.03 | 0.906 ± 0.028 | 0.82 ± 0.025 | 0.76 ± 0.024

CCCC(C)O (centres undefined) [pentan-2-ol] + CC(=O)N(C)C
Settings | mass density, 298.15 K [kg/m3] | mass density, 303.15 K [kg/m3] | mass density, 308.15 K [kg/m3] | mass density, 313.15 K [kg/m3] | viscosity, 298.15 K [mPa·s] | viscosity, 303.15 K [mPa·s] | viscosity, 308.15 K [mPa·s] | viscosity, 313.15 K [mPa·s]
x2 = 0 | 805.4 ± 0.2 | 800.9 ± 0.2 | 796.9 ± 0.2 | 792.6 ± 0.2 | 3.5 ± 0.1 | 2.83 ± 0.082 | 2.35 ± 0.069 | 1.98 ± 0.058
x2 = 0.0811 | 813.4 ± 0.2 | 809 ± 0.2 | 804.9 ± 0.2 | 800.3 ± 0.2 | 2.87 ± 0.083 | 2.42 ± 0.071 | 2.08 ± 0.061 | 1.75 ± 0.052
x2 = 0.16 | 821.8 ± 0.2 | 817.3 ± 0.2 | 813 ± 0.2 | 808.2 ± 0.2 | 2.35 ± 0.069 | 2.01 ± 0.059 | 1.8 ± 0.053 | 1.52 ± 0.045
x2 = 0.2399 | 830.7 ± 0.2 | 826 ± 0.2 | 821.6 ± 0.2 | 816.6 ± 0.2 | 1.93 ± 0.057 | 1.69 ± 0.05 | 1.57 ± 0.047 | 1.33 ± 0.04
x2 = 0.35 | 843.5 ± 0.2 | 838.7 ± 0.2 | 834.1 ± 0.2 | 828.9 ± 0.2 | 1.52 ± 0.045 | 1.38 ± 0.041 | 1.29 ± 0.039 | 1.13 ± 0.034
x2 = 0.4398 | 854.5 ± 0.2 | 849.6 ± 0.2 | 845 ± 0.2 | 839.6 ± 0.2 | 1.3 ± 0.039 | 1.21 ± 0.036 | 1.14 ± 0.035 | 1.01 ± 0.031
x2 = 0.5595 | 870.1 ± 0.2 | 865 ± 0.2 | 860.4 ± 0.2 | 854.9 ± 0.2 | 1.13 ± 0.034 | 1.07 ± 0.033 | 0.99 ± 0.03 | 0.89 ± 0.027
x2 = 0.6499 | 882.5 ± 0.2 | 877.5 ± 0.2 | 872.8 ± 0.2 | 867.4 ± 0.2 | 1.05 ± 0.032 | 0.99 ± 0.03 | 0.91 ± 0.028 | 0.83 ± 0.026
x2 = 0.7398 | 895.4 ± 0.2 | 890.4 ± 0.2 | 885.8 ± 0.2 | 880.5 ± 0.2 | 0.99 ± 0.03 | 0.93 ± 0.029 | 0.86 ± 0.027 | 0.793 ± 0.025
x2 = 0.8499 | 912.1 ± 0.2 | 907.3 ± 0.2 | 902.8 ± 0.2 | 897.8 ± 0.2 | 0.95 ± 0.029 | 0.89 ± 0.027 | 0.82 ± 0.025 | 0.761 ± 0.024
x2 = 0.9398 | 926.5 ± 0.2 | 921.9 ± 0.2 | 917.5 ± 0.2 | 913 ± 0.2 | 0.938 ± 0.029 | 0.878 ± 0.027 | 0.804 ± 0.025 | 0.752 ± 0.024

CC(=O)N(C)C [N,N-dimethylethanamide] + CCC(C)O
Settings | mass density, 298.15 K [kg/m3] | mass density, 303.15 K [kg/m3] | mass density, 308.15 K [kg/m3] | mass density, 313.15 K [kg/m3] | viscosity, 298.15 K [mPa·s] | viscosity, 303.15 K [mPa·s] | viscosity, 308.15 K [mPa·s] | viscosity, 313.15 K [mPa·s]
x1 = 0.0812 | 813.5 ± 0.2 | 808.9 ± 0.2 | 804.1 ± 0.2 | 799.4 ± 0.2 | 2.57 ± 0.08 | 2.19 ± 0.06 | 1.89 ± 0.06 | 1.62 ± 0.05
x1 = 0.1602 | 823.6 ± 0.2 | 818.7 ± 0.2 | 813.6 ± 0.2 | 808.6 ± 0.2 | 2.16 ± 0.06 | 1.88 ± 0.06 | 1.65 ± 0.05 | 1.44 ± 0.04
x1 = 0.2401 | 833.9 ± 0.2 | 828.7 ± 0.2 | 823.7 ± 0.2 | 818.1 ± 0.2 | 1.81 ± 0.05 | 1.61 ± 0.05 | 1.45 ± 0.04 | 1.27 ± 0.04
x1 = 0.3499 | 848.2 ± 0.2 | 842.6 ± 0.2 | 837.1 ± 0.2 | 831.6 ± 0.2 | 1.45 ± 0.04 | 1.35 ± 0.04 | 1.25 ± 0.04 | 1.12 ± 0.03
x1 = 0.4355 | 859.4 ± 0.2 | 853.8 ± 0.2 | 848 ± 0.2 | 842.5 ± 0.2 | 1.27 ± 0.04 | 1.21 ± 0.04 | 1.14 ± 0.03 | 1.03 ± 0.03
x1 = 0.56 | 876 ± 0.2 | 870.3 ± 0.2 | 864.7 ± 0.2 | 859 ± 0.2 | 1.14 ± 0.03 | 1.09 ± 0.03 | 1.02 ± 0.03 | 0.93 ± 0.03
x1 = 0.65 | 888.1 ± 0.2 | 882.5 ± 0.2 | 876.8 ± 0.2 | 871.4 ± 0.2 | 1.08 ± 0.03 | 1.03 ± 0.03 | 0.95 ± 0.03 | 0.88 ± 0.03
x1 = 0.7398 | 900.3 ± 0.2 | 894.9 ± 0.2 | 890.2 ± 0.2 | 884.2 ± 0.2 | 1.03 ± 0.03 | 0.98 ± 0.03 | 0.91 ± 0.03 | 0.84 ± 0.03
x1 = 0.8498 | 915.4 ± 0.2 | 910.3 ± 0.2 | 906.1 ± 0.2 | 900.3 ± 0.2 | 0.99 ± 0.03 | 0.93 ± 0.03 | 0.86 ± 0.03 | 0.8 ± 0.03
x1 = 0.9389 | 927.8 ± 0.2 | 923.1 ± 0.2 | 918.9 ± 0.2 | 914 ± 0.2 | 0.96 ± 0.03 | 0.91 ± 0.03 | 0.82 ± 0.03 | 0.77 ± 0.02
x1 = 1 | 936.5 ± 0.2 | 932 ± 0.2 | 927.8 ± 0.2 | 923.5 ± 0.2 | 0.94 ± 0.03 | 0.87 ± 0.03 | 0.8 ± 0.03 | 0.75 ± 0.02
